Laboratory results as given in paper PMC8048873 (The Plant Journal, 2021).

Biological target: T1, CERK1 ectodomain (CERK1-ECD; LYK1) (Arabidopsis thaliana, UniProt A8R7E6)
T1 sequence (A8R7E6 24-232): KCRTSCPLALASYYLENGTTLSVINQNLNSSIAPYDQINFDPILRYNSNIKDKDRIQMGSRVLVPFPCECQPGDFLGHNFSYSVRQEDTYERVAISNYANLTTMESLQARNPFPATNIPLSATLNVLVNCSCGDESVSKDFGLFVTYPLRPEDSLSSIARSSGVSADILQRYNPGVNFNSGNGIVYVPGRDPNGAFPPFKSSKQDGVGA
Experiment: isothermal titration calorimetry
Type: binding
Conditions: 20 mM MES pH 6.5, 150 mM NaCl, 25°C; 50 µM protein in cell, ligand 500 µM or 1 mM; n = 2

Kd: 37.5 ± 10 µM
Structure (SMILES): CC(=O)N[C@H]1[C@H](O[C@H]2[C@H](O)[C@@H](NC(C)=O)[C@H](O[C@H]3[C@H](O)[C@@H](NC(C)=O)C(O)O[C@@H]3CO)O[C@@H]2CO)O[C@H](CO)[C@@H](O[C@@H]2O[C@H](CO)[C@@H](O[C@@H]3O[C@H](CO)[C@@H](O[C@@H]4O[C@H](CO)[C@@H](O)[C@H](O)[C@H]4NC(C)=O)[C@H](O)[C@H]3NC(C)=O)[C@H](O)[C@H]2NC(C)=O)[C@@H]1O (stereo partly drawn) [1,4‐β‐D‐(GlcNAc)6, chitohexaose]
